Our source for the IC50 and GI50 values is ChEMBL document CHEMBL1141233, “3-(5-Chloro-2,4-dihydroxyphenyl)-pyrazole-4-carboxamides as inhibitors of the Hsp90 molecular chaperone” (Bioorg Med Chem Lett, 2005).

The IC50 is the point on the concentration scale where inhibition reaches its midpoint. Read a high IC50 as weaker potency. What is called GI50 is the concentration that inhibits growth by half. A lower GI50 goes with more potent growth inhibition.

For one assay, the target named is Heat shock protein HSP90 (Homo sapiens, UniProt P07900+P08238). Nature of the assay: Binding affinity to Hsp90 by fluorescent polarization assay. The assay is classed as protein assay.
For `O=C(NCc1ccc(F)cc1)c1cn[nH]c1-c1cc(Cl)c(O)cc1O`, the IC50 was determined as 5.35 µM.

`O=C(NCc1ccco1)c1cn[nH]c1-c1cc(Cl)c(O)cc1O`: the IC50 came out at 35.6 µM.

`COc1cccc(NC(=O)c2c[nH]nc2-c2cc(Cl)c(O)cc2O)c1` displayed an IC50 of 11.7 µM.

`COc1cccc(CNC(=O)c2c[nH]nc2-c2cc(Cl)c(O)cc2O)c1` registered an IC50 of 10.7 µM.

Regarding `O=C(Nc1ccc(O)cc1)c1c[nH]nc1-c1cc(Cl)c(O)cc1O`, the IC50 amounted to 14.7 µM.

`CC(=O)Nc1ccc(NC(=O)c2c[nH]nc2-c2cc(Cl)c(O)cc2O)cc1`: the IC50 is 31.5 µM.

In the case of `O=C(NCc1ccccc1)c1cn[nH]c1-c1cc(Cl)c(O)cc1O`, the IC50 was 12.8 µM.

`COc1ccc(CNC(=O)c2c[nH]nc2-c2cc(Cl)c(O)cc2O)cc1` yielded a half-inhibitory concentration (IC50) of 6 µM.

Turning to `O=C(Nc1ccc(Cl)cc1)c1cn[nH]c1-c1cc(Cl)c(O)cc1O`, the IC50 amounted to 6.9 µM.

Regarding `O=C(Nc1ccccn1)c1cn[nH]c1-c1cc(Cl)c(O)cc1O`, the IC50 is greater than 50 µM.

In turn, `O=C(Nc1ccccc1)c1cn[nH]c1-c1cc(Cl)c(O)cc1O` displayed an IC50 of 7.1 µM.

As to `COc1ccc(NC(=O)c2c[nH]nc2-c2cc(Cl)c(O)cc2O)cc1`, the IC50 was determined as 6 µM.

Consider `O=C(NCc1cccc(C(F)(F)F)c1)c1cn[nH]c1-c1cc(Cl)c(O)cc1O`, for which the IC50 stood at 5.4 µM.

In turn, `COc1ccc(N(C)C(=O)c2c[nH]nc2-c2cc(Cl)c(O)cc2O)cc1` returned an IC50 greater than 50 µM.

For another assay, the system named is HCT-116. Nature of the assay: Inhibition of cell proliferation in HCT116 human colon cancer cell line. The assay is classed as functional.
On to `O=C(NCc1ccc(F)cc1)c1cn[nH]c1-c1cc(Cl)c(O)cc1O`, for which it took 56.2 µM to inhibit growth by half (GI50).

Consider `COc1cccc(NC(=O)c2c[nH]nc2-c2cc(Cl)c(O)cc2O)c1`, for which the GI50 is greater than 80 µM.

Take `NS(=O)(=O)c1ccc(CNC(=O)c2cn[nH]c2-c2cc(Cl)c(O)cc2O)cc1`: the GI50 is greater than 80 µM.

Take `COc1cccc(CNC(=O)c2c[nH]nc2-c2cc(Cl)c(O)cc2O)c1`: the GI50 was greater than 80 µM.

For `CC(=O)c1ccc(NC(=O)c2cn[nH]c2-c2cc(Cl)c(O)cc2O)cc1`, the GI50 was 11.6 µM.

`O=C(Nc1ccc(O)cc1)c1c[nH]nc1-c1cc(Cl)c(O)cc1O` displayed a GI50 greater than 80 µM.

With `CC(=O)Nc1ccc(NC(=O)c2c[nH]nc2-c2cc(Cl)c(O)cc2O)cc1`, the GI50 worked out at 59.7 µM.

The molecule `O=C(NCc1ccccc1)c1cn[nH]c1-c1cc(Cl)c(O)cc1O` came in with a GI50 greater than 80 µM.

Regarding `COc1ccc(CNC(=O)c2c[nH]nc2-c2cc(Cl)c(O)cc2O)cc1`, halving of growth (GI50) required 60.7 µM.

`O=C(Nc1ccc(Cl)cc1)c1cn[nH]c1-c1cc(Cl)c(O)cc1O` registered a GI50 greater than 80 µM.

In the case of `COc1ccc(NC(=O)c2c[nH]nc2-c2cc(Cl)c(O)cc2O)cc1`, the GI50 is greater than 80 µM.

`O=C(NCc1cccc(C(F)(F)F)c1)c1cn[nH]c1-c1cc(Cl)c(O)cc1O` came in with a GI50 of 45 µM.
